Source: the supplement of paper PMC13380429

Legend:
Conditions in all cases: 72 h
Caco-2 [1] = assay: drug sensitivity score (DSS) for viability; higher = more toxic; extreme values may be limits of the assay
U2OS [2] = assay: as above
HepG2 [3] = assay: as above
Calu-3 [4] = assay: as above
Vero E6 [5] = assay: as above
Caco-2 [6] = assay: relative viability EC50 (midpoint between 100% and the lowest measured viability); higher = less toxic
U2OS [7] = assay: as above
HepG2 [8] = assay: as above
Calu-3 [9] = assay: as above
Vero E6 [10] = assay: as above
Caco-2 [11] = assay: cell viability relative to DMSO; higher = less toxic
U2OS [12] = assay: as above
HepG2 [13] = assay: as above
Calu-3 [14] = assay: as above
Vero E6 [15] = assay: as above

SMILES | drug sensitivity score (Caco-2 [1]) | drug sensitivity score (U2OS [2]) | drug sensitivity score (HepG2 [3]) | drug sensitivity score (Calu-3 [4]) | drug sensitivity score (Vero E6 [5]) | relative viability EC50 (Caco-2 [6]) [µM] | relative viability EC50 (U2OS [7]) [µM] | relative viability EC50 (HepG2 [8]) [µM] | relative viability EC50 (Calu-3 [9]) [µM] | relative viability EC50 (Vero E6 [10]) [µM] | cell viability (Caco-2 [11]; 1 nM) [%] | cell viability (Caco-2 [11]; 10 nM) [%] | cell viability (Caco-2 [11]; 100 nM) [%] | cell viability (Caco-2 [11]; 1000 nM) [%] | cell viability (Caco-2 [11]; 10000 nM) [%] | cell viability (U2OS [12]; 1 nM) [%] | cell viability (U2OS [12]; 10 nM) [%] | cell viability (U2OS [12]; 100 nM) [%] | cell viability (U2OS [12]; 1000 nM) [%] | cell viability (U2OS [12]; 10000 nM) [%] | cell viability (HepG2 [13]; 1 nM) [%] | cell viability (HepG2 [13]; 10 nM) [%] | cell viability (HepG2 [13]; 100 nM) [%] | cell viability (HepG2 [13]; 1000 nM) [%] | cell viability (HepG2 [13]; 10000 nM) [%] | cell viability (Calu-3 [14]; 1 nM) [%] | cell viability (Calu-3 [14]; 10 nM) [%] | cell viability (Calu-3 [14]; 100 nM) [%] | cell viability (Calu-3 [14]; 1000 nM) [%] | cell viability (Calu-3 [14]; 10000 nM) [%] | cell viability (Vero E6 [15]; 1 nM) [%] | cell viability (Vero E6 [15]; 10 nM) [%] | cell viability (Vero E6 [15]; 100 nM) [%] | cell viability (Vero E6 [15]; 1000 nM) [%] | cell viability (Vero E6 [15]; 10000 nM) [%]
O=C1OC2(c3ccc(O)cc3Oc3cc(O)ccc32)c2ccccc21 [fluorescein] | 0 | 0 | 0 | 0 | 0 | > 10 | > 10 | > 10 | > 10 | > 10 | 108 | 116 | 117 | 120 | 98.3 | 99.5 | 101 | 95.2 | 97.7 | 92.5 | 97.9 | 99.1 | 108 | 94.7 | 97.7 | 97.5 | 101 | 101 | 93.6 | 101 | 102 | 94.6 | 106 | 107 | 101
NNC(=O)CN1C(=O)CN=C(c2ccccc2)c2cc(Br)ccc21 [gidazepam] | 0 | 0 | 0 | 0 | 0 | > 10 | > 10 | > 10 | > 10 | > 10 | 95.8 | 92.7 | 94.4 | 90.2 | 95.7 | 96.5 | 92.2 | 96.8 | 91 | 97.5 | 106 | 92.2 | 109 | 106 | 106 | 104 | 99 | 100 | 110 | 98.5 | 99.3 | 102 | 93 | 94.1 | 102
N=C(N)N/N=C/c1c(Cl)cccc1Cl [guanaben-acetate] | 0 | 0 | 0 | 0 | 0 | > 10 | > 10 | > 10 | > 10 | > 10 | 94.3 | 95.8 | 87.3 | 95.4 | 90.7 | 96.9 | 96.2 | 94.6 | 97.7 | 91.5 | 98.1 | 102 | 102 | 93.9 | 101 | 91.7 | 94.2 | 91 | 99.7 | 92.1 | 95.3 | 102 | 100 | 97.5 | 97.7
CC(C)(N)C(=O)N[C@H](COCc1ccccc1)C(=O)N1CCC2(CC1)CN(S(C)(=O)=O)c1ccccc12 [ibutamoren] | 0 | 0 | 0 | 0 | 0 | > 10 | > 10 | > 10 | > 10 | > 10 | 93.6 | 98.4 | 99 | 100 | 95.8 | 100 | 100 | 96.9 | 102 | 100 | 102 | 89.5 | 95.6 | 98 | 95.6 | 111 | 108 | 98 | 105 | 91 | 104 | 103 | 98.1 | 95.6 | 108
CCOC(=O)[C@H](CCc1ccccc1)N[C@@H](C)C(=O)N1C(=O)N(C)C[C@H]1C(=O)O [imidapril] | 0 | 0 | 0 | 0 | 0 | > 10 | > 10 | > 10 | > 10 | > 10 | 95.1 | 87.8 | 93.9 | 97.6 | 97.8 | 101 | 93.4 | 97.7 | 95.7 | 102 | 94.6 | 103 | 104 | 113 | 104 | 98.5 | 96.4 | 99.8 | 97.5 | 96.8 | 104 | 98.3 | 98.1 | 101 | 99.9
Cc1ccc2c(c1)c1c(n2CCc2ccc(C)nc2)CCN(C)C1 [latrepirdine] | 0 | 0 | 0 | 0 | 0 | > 10 | > 10 | > 10 | > 10 | > 10 | 106 | 99.4 | 97.9 | 96 | 91 | 100 | 100 | 97.7 | 95.8 | 93.7 | 108 | 102 | 118 | 98.8 | 99.7 | 97.5 | 97.4 | 101 | 103 | 95.4 | 98 | 102 | 104 | 96.5 | 93.6
C[C@@H]1NC(=O)[C@@H]2CCCN2C(=O)[C@H](CC(N)=O)NC(=O)[C@@H]2CSSC[C@H](N)C(=O)N[C@H]3CSSC[C@H](NC1=O)C(=O)N[C@@H]([C@@H](C)O)C(=O)NCC(=O)N[C@H](C(=O)N[C@@H](Cc1ccc(O)cc1)C(=O)O)CSSC[C@H](NC(=O)[C@H](Cc1ccc(O)cc1)NC(=O)[C@H](CCC(=O)O)NC3=O)C(=O)N2 [linaclotide] | 0 | 0 | 0 | 0 | 0 | > 10 | > 10 | > 10 | > 10 | > 10 | 98.8 | 98.9 | 104 | 110 | 95.1 | 101 | 101 | 97.3 | 100 | 95.8 | 93.6 | 93.8 | 102 | 88.9 | 94.2 | 90.3 | 91.2 | 83.9 | 107 | 97.2 | 100 | 106 | 104 | 91.1 | 103
Cc1cccc(C)c1OCC(=O)N[C@@H](Cc1ccccc1)[C@@H](O)C[C@H](Cc1ccccc1)NC(=O)[C@H](C(C)C)N1CCCNC1=O [lopinavir] | 0.7 | 0 | 0.1 | 0 | 0 | > 10 | > 10 | > 10 | > 10 | > 10 | 90.9 | 102 | 102 | 93.9 | 84.8 | 101 | 107 | 100 | 101 | 93.3 | 107 | 106 | 108 | 104 | 86.5 | 103 | 90.1 | 97.3 | 102 | 104 | 103 | 99.1 | 104 | 101 | 110
Cc1ccccc1OCC(O)CO (stereo not given) [mephenesin] | 0 | 0 | 0 | 0 | 0 | > 10 | > 10 | > 10 | > 10 | > 10 | 90.8 | 96.5 | 94.4 | 93.1 | 92.7 | 101 | 96.8 | 104 | 97.1 | 100 | 107 | 113 | 109 | 102 | 99.8 | 111 | 91.1 | 103 | 101 | 106 | 110 | 103 | 99.6 | 102 | 98.4
O=C1NC(=S)NC(=O)C1C(=O)Nc1ccccc1 [merbarone] | 0 | 0 | 0 | 0 | 0 | > 10 | > 10 | > 10 | > 10 | > 10 | 94.7 | 93.3 | 103 | 94 | 94.5 | 93.9 | 96.3 | 97.4 | 103 | 104 | 104 | 87.2 | 100 | 99.8 | 102 | 99.3 | 100 | 105 | 106 | 110 | 100 | 91.6 | 93.9 | 92.7 | 106
CC(=O)Nc1cccc(O)c1 [metacetamol] | 0 | 0 | 0.6 | 0 | 0 | > 10 | > 10 | > 10 | > 10 | > 10 | 104 | 101 | 89.1 | 93.8 | 98.8 | 103 | 101 | 99.7 | 95.5 | 101 | 103 | 91.5 | 93.7 | 92.1 | 83.8 | 98.1 | 101 | 99.9 | 99.8 | 96.9 | 102 | 94.1 | 96 | 97.9 | 102
Cc1cc(C(C)(C)CC(C)(C)C)ccc1OCCOCC[N+](C)(C)Cc1ccccc1 [methylbenzethonium-chloride] | 5.4 | 0.6 | 0.3 | 1.3 | 0 | 1.51 | > 10 | > 10 | > 10 | > 10 | 95.2 | 102 | 99.3 | 85 | 42.5 | 101 | 94.7 | 102 | 98.9 | 82.2 | 92 | 105 | 98.1 | 108 | 81.2 | 103 | 103 | 91.4 | 89.8 | 80.5 | 95.9 | 98.5 | 92.2 | 98.3 | 106
CCCCCCCCCCCCCCCCOP(=O)([O-])OCC[N+](C)(C)C [miltefosine] | 0 | 0 | 0 | 0 | 0.6 | > 10 | > 10 | > 10 | > 10 | > 10 | 113 | 104 | 106 | 114 | 99.8 | 96.8 | 103 | 97.2 | 99.9 | 95.5 | 107 | 98.5 | 112 | 96.4 | 109 | 98.3 | 91.5 | 90.3 | 108 | 86.5 | 96.1 | 101 | 110 | 105 | 77.3
